IC50 data for 15 compounds are collected here from patent US12564638B2 (SHANGHAITECH UNIVERSITY, priority 2019, dated 2026).

Assay [1] deals with HCC827 cells (EGFR Exon19 del, non-small cell lung cancer cells). The assay can be described thus: Cell viability assay (WST/CCK8), HCC827 cells. Format: cell-based. The note with it: Homo sapiens, HCC827, 72 h, HCC827 (Exon19 Del), 72 hours, read-out: IC50 (half inhibitory concentration). Put shortly: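 Plated 3 000 cells/well in complete RPMI1640 the day before dosing; controls were DMSO (negative) and EGFR TKIs (positive).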

For assay [2], the system named is PC9 cells (EGFR Exon 19 del, non-small cell lung cancer cells). The assay can be described thus: Cell viability assay (WST/CCK8), PC9 cells. Format: cell-based. The note with it: Homo sapiens, PC-9, PC9 (Exon19 Del), 72 hours, read-out: IC50 (half inhibitory concentration). The text has this: The cell lines with abnormal EGFR expression used are as follows: • HCC827 cells (EGFR Exon19 del, non-small cell lung cancer cells); • PC9 cells (EGFR Exon 19 del, non-small cell lung cancer cells); • PC9BracA1 (EGFR Exon 19 del+T790M, non-small cell lung cancer cells) • H1975 (EGFR Exon T790M+L858R mutation, non-small cell lung cancer cell line) • BT474 cells (HER2 positive breast cancer cells)
All of the half inhibitory concentrations (IC50) of these compounds of the present invention were determined with WST reagent from Fuyuan Biotec Company. The specific experiment procedures are as follows: Cancer cells were planted in 96-well-plate at the density of 3 000 cells per well with 100 μL RPMI1640 completed culture medium. In the next day, compounds with indicated concentrations were added to the cells, DMSO was used as the negative control and the EGFR TKIs were used to treat cells as the positive groups. After 72 hours drug treatment, cell viability was measured by using the WST reagent following the instructions.
The cells were treated with the gradient concentration of these compounds (the maximum concentration: 10 μM; 3-fold dilution ratio, 10 concentration gradients) for 72 hours and then incubated with the WST (CCK8) reagent to determine the cell viability.

The mark [3] stands for this setting: Table 6, canertinib-based compounds, WST.

Where two headings read alike, the source gives them in different places.

As for `COc1cc2ncnc(Nc3ccc(F)c(Cl)c3)c2cc1NC(=O)/C=C/CN1CCN(C(=O)CCCCCNc2cccc3c2C(=O)N(C2CCC(=O)NC2=O)C3=O)CC1` (stereo not drawn) [SIAIS249049, (E)-N-(4-((3-chloro-4-fluorophenyl)amino)-7-methoxyquinazolin-6-yl)-4-(4-(6-((2-(2,6-dioxopiperidin-3-yl)-1,3-dioxoisoindolin-4-yl)amino)hexanoyl)piperazin-1-yl)but-2-enamide], the IC50 in assay [1] (WST (CCK8)) was determined as 4.6 nM; in assay [2] (WST (CCK8)) it was 16 nM.

With `COc1cc2ncnc(Nc3ccc(F)c(Cl)c3)c2cc1NC(=O)/C=C/CN1CCC(NC(=O)CCOCCOCCNc2cccc3c2C(=O)N(C2CCC(=O)NC2=O)C3=O)CC1` (stereo not drawn) [SIAIS249086, (E)-N-(4-((3-chloro-4-fluorophenyl)amino)-7-methoxyquinazolin-6-yl)-4-(4-(3-(2-(2-((2-(2,6-dioxopiperidin-3-yl)-1,3-dioxoisoindolin-4-yl)amino)ethoxy)ethoxy)propanamido)piperidin-1-yl)but-2-enamide], the values for the IC50 in assay [1] (WST (CCK8)) and in assay [2] (WST (CCK8)) were 17 nM and 34.2 nM, respectively.

With `COc1cc2ncnc(Nc3ccc(F)c(Cl)c3)c2cc1NC(=O)/C=C/CN1CCC(N2CCN(C(=O)CCc3cccc4c3CN(C3CCC(=O)NC3=O)C4=O)CC2)CC1` (stereo not drawn) [SIAIS262052, (E)-N-(4-((3-chloro-4-fluorophenyl)amino)-7-methoxyquinazolin-6-yl)-4-(4-(4-(3-(2-(2,6-dioxopiperidin-3-yl)-1-oxoisoindolin-4-yl)propanoyl)piperazin-1-yl)piperidin-1-yl)but-2-enamide], the IC50 in assay [1] (WST (CCK8)) turned out to be 1.4 nM; in assay [2] (WST (CCK8)), 1.3 nM.

With `COc1cc2ncnc(Nc3ccc(F)c(Cl)c3)c2cc1NC(=O)/C=C/CN1CCC(N2CCN(C(=O)CCCCCCCCCSc3cccc4c3CN(C3CCC(=O)NC3=O)C4=O)CC2)CC1` (stereo not drawn) [SIAIS337037, (E)-N-(4-((3-chloro-4-fluorophenyl)amino)-7-methoxyquinazolin-6-yl)-4-(4-(4-(10-((2-(2,6-dioxopiperidin-3-yl)-1-oxoisoindolin-4-yl)thio)decanoyl)piperazin-1-yl)piperidin-1-yl)but-2-enamide], the IC50 was determined as 0.3 nM in assay [1] (WST (CCK8)) and 0.7 nM in assay [2] (WST (CCK8)).

Regarding `COc1cc2ncnc(Nc3ccc(F)c(Cl)c3)c2cc1NC(=O)/C=C/CN1CCC(N2CCN(C(=O)CCN3CCN(CCC(=O)N[C@H](C(=O)N4C[C@H](O)C[C@H]4C(=O)NCc4ccc(-c5scnc5C)cc4)C(C)(C)C)CC3)CC2)CC1` [SIAIS249105, (2S,4R)-1-((S)-2-(3-(4-(3-(4-(1-((E)-4-((4-((3-chloro-4-fluorophenyl)amino)-7-methoxyquinazolin-6-yl)amino)-4-oxobut-2-en-1-yl)piperidin-4-yl)piperazin-1-yl)-3-oxopropyl)piperazin-1-yl)propanamido)-3,3-dimethylbutanoyl)-4-hydroxy-N-(4-(4-methylthiazol-5-yl)benzyl)pyrrolidine-2-carboxamide], the IC50 in assay [1] (WST (CCK8)) was 54.3 nM; in assay [2] (WST (CCK8)), 60.5 nM.

For the compound `COc1cc2ncnc(Nc3ccc(F)c(Cl)c3)c2cc1NC(=O)/C=C/CN1CCC(N2CCN(C(=O)COc3cccc4c3CN(C3CCC(=O)NC3=O)C4=O)CC2)CC1` (stereo not drawn) [SIAIS337025, (E)-N-(4-((3-chloro-4-fluorophenyl)amino)-7-methoxyquinazolin-6-yl)-4-(4-(4-(2-((2-(2,6-dioxopiperidin-3-yl)-1-oxoisoindolin-4-yl)oxy)acetyl)piperazin-1-yl)piperidin-1-yl)but-2-enamide], the results for the IC50 in assay [1] (WST (CCK8)) and in assay [2] (WST (CCK8)) were 5.6 nM and 36 nM, respectively.

`COc1cc2ncnc(Nc3ccc(F)c(Cl)c3)c2cc1NC(=O)/C=C/CN1CCN(C(=O)CSc2cccc3c2CN(C2CCC(=O)NC2=O)C3=O)CC1` (stereo not drawn) [SIAIS219185, (E)-N-(4-((3-chloro-4-fluorophenyl)amino)-7-methoxyquinazolin-6-yl)-4-(4-(2-((2-(2,6-dioxopiperidin-3-yl)-1-oxoisoindolin-4-yl)thio)acetyl)piperazin-1-yl)but-2-enamide]: the IC50 in assay [1] (WST (CCK8)) was 15.7 nM; in assay [2] (WST (CCK8)), 23.3 nM.

Turning to `C=CC(=O)Nc1cc2c(Nc3ccc(F)c(Cl)c3)ncnc2cc1OCCCN1CCN(C(=O)CCOCCOCCOCCOCCC(=O)N[C@H](C(=O)N2C[C@H](O)C[C@H]2C(=O)NCc2ccc(-c3scnc3C)cc2)C(C)(C)C)CC1` [SIAIS262130, (2S,4R)-1-((S)-19-(4-(3-((6-acrylamido-4-((3-chloro-4-fluorophenyl)amino)quinazolin-7-yl)oxy)propyl)piperazin-1-yl)-2-(tert-butyl)-4,19-dioxo-7,10,13,16-tetraoxa-3-azanonadecanoyl)-4-hydroxy-N-(4-(4-methylthiazol-5-yl)benzyl)pyrrolidine-2-carboxamide], the IC50 in assay [1] (setting [3]) amounted to 47.2 nM; in assay [2] (setting [3]), 179 nM.

For `COc1cc2ncnc(Nc3ccc(F)c(Cl)c3)c2cc1NC(=O)/C=C/CN1CCN(C(=O)CCOCCOCCNc2cccc3c2C(=O)N(C2CCC(=O)NC2=O)C3=O)CC1` (stereo not drawn) [SIAIS262013, (E)-N-(4-((3-chloro-4-fluorophenyl)amino)-7-methoxyquinazolin-6-yl)-4-(4-(3-(2-(2-((2-(2,6-dioxopiperidin-3-yl)-1,3-dioxoisoindolin-4-yl)amino)ethoxy)ethoxy)propanoyl)piperazin-1-yl)but-2-enamide], the IC50 in assay [1] (WST (CCK8)) is 35.8 nM; in assay [2] (WST (CCK8)), 28 nM.

`COc1cc2ncnc(Nc3ccc(F)c(Cl)c3)c2cc1NC(=O)/C=C/CN1CCN(C(=O)COCCSc2cccc3c2C(=O)N(C2CCC(=O)NC2=O)C3=O)CC1` (stereo not drawn) [SIAIS219192, (E)-N-(4-((3-chloro-4-fluorophenyl)amino)-7-methoxyquinazolin-6-yl)-4-(4-(2-(2-((2-(2,6-dioxopiperidin-3-yl)-1,3-dioxoisoindolin-4-yl)thio)ethoxy)acetyl)piperazin-1-yl)but-2-enamide]: the IC50 in assay [1] (WST (CCK8)) stood at 16.4 nM; in assay [2] (WST (CCK8)), 8.9 nM.

As to `COc1cc2ncnc(Nc3ccc(F)c(Cl)c3)c2cc1NC(=O)/C=C/CN1CCN(C(=O)CCCNc2cccc3c2C(=O)N(C2CCC(=O)NC2=O)C3=O)CC1` (stereo not drawn) [SIAIS249062, (E)-N-(4-((3-chloro-4-fluorophenyl)amino)-7-methoxyquinazolin-6-yl)-4-(4-(4-((2-(2,6-dioxopiperidin-3-yl)-1,3-dioxoisoindolin-4-yl)amino)butanoyl)piperazin-1-yl)but-2-enamide], the figures for the IC50 in assay [1] (WST (CCK8)) and in assay [2] (WST (CCK8)) were 3.7 nM and 10 nM, respectively.

Turning to `COc1cc2ncnc(Nc3ccc(F)c(Cl)c3)c2cc1OCCCN1CCN(C(=O)CCCCCSc2cccc3c2C(=O)N(C2CCC(=O)NC2=O)C3=O)CC1` (stereo not drawn) [SIAIS184166, 4-((6-(4-(3-((4-((3-chloro-4-fluorophenyl)amino)-7-methoxyquinazolin-6-yl)oxy)propyl)piperazin-1-yl)-6-oxohexyl)thio)-2-(2,6-dioxopiperidin-3-yl)isoindoline-1,3-dione], the IC50 amounted to 80 nM in assay [1] (Table 4, gefitinib and sapitinib-based compounds, WST); 692 nM in assay [2] (Table 4, gefitinib-based compounds, WST).

Turning to `COc1cc2ncnc(Nc3ccc(F)c(Cl)c3)c2cc1NC(=O)/C=C/CN1CCC(N2CCN(C(=O)CCC(=O)NCCNc3cccc4c3C(=O)N(C3CCC(=O)NC3=O)C4=O)CC2)CC1` (stereo not drawn) [SIAIS249104, (E)-N-(4-((3-chloro-4-fluorophenyl)amino)-7-methoxyquinazolin-6-yl)-4-(4-(4-(4-((2-((2-(2,6-dioxopiperidin-3-yl)-1,3-dioxoisoindolin-4-yl)amino)ethyl)amino)-4-oxobutanoyl)piperazin-1-yl)piperidin-1-yl)but-2-enamide], the IC50 was found to be 18.2 nM in assay [1] (WST (CCK8)) and 37.6 nM in assay [2] (WST (CCK8)).

Take `COc1cc2ncnc(Nc3ccc(F)c(Cl)c3)c2cc1NC(=O)/C=C/CN1CCN(C(=O)CCCCCCNc2cccc3c2CN(C2CCC(=O)NC2=O)C3=O)CC1` (stereo not drawn) [SIAIS249060, (E)-N-(4-((3-chloro-4-fluorophenyl)amino)-7-methoxyquinazolin-6-yl)-4-(4-(7-((2-(2,6-dioxopiperidin-3-yl)-1-oxoisoindolin-4-yl)amino)heptanoyl)piperazin-1-yl)but-2-enamide]: the IC50 was found to be 11.5 nM in assay [1] (WST (CCK8)) and 16 nM in assay [2] (WST (CCK8)).

With `COc1cc2ncnc(Nc3ccc(F)c(Cl)c3)c2cc1NC(=O)/C=C/CN1CCN(C(=O)COCCOCCOCCSc2cccc3c2CN(C2CCC(=O)NC2=O)C3=O)CC1` (stereo not drawn) [SIAIS262002, (E)-N-(4-((3-chloro-4-fluorophenyl)amino)-7-methoxyquinazolin-6-yl)-4-(4-(2-(2-(2-(2-((2-(2,6-dioxopiperidin-3-yl)-1-oxoisoindolin-4-yl)thio)ethoxy)ethoxy)ethoxy)acetyl)piperazin-1-yl)but-2-enamide], the IC50 in assay [1] (WST (CCK8)) turned out to be 26.1 nM; in assay [2] (WST (CCK8)) it was 78 nM.
